Here are results for 2 substances from patent publication US20260242405A1, “N-DERIVATIZED SIALIC ACIDS AND RELATED SIALOSIDES” (THE REGENTS OF THE UNIVERSITY OF CALIFORNIA, priority 2023, published 2026).

In this experiment the test system is influenza NAs.

As to “4NH2Neu5Acα2-3LacNAcβPorNH-PEG4-Biotin [Compound 9d]”, the “resistance of immobilized sialoside to NA-catalyzed cleavage during BLI incubation” value is “bound to the NAs but was partially cleaved off during the incubation”.
Take “4-Guanidino-Neu5Acα2-3LacNAcβPorNH-PEG4-Biotin [Compound 10d]”: the “resistance of immobilized sialoside to NA-catalyzed cleavage during BLI incubation” value is “resistant to the NA-catalyzed cleavage”.
